The test system of one series is astrocyte. The following applies: literature (54); cited from earlier work.
A further series deals with neuronal cell cultures. The following applies: literature (34); cited from earlier work.
For another series, the system named is PC12 cells. The series is described as follows: NGF-induced neurite outgrowth in PC12 cells. The conditions noted are these: TPPU 0.1, 1.0 or 10 μM, 14,15-EET 0.01, 0.1 or 1.0 μM, concentration dependent. The class given is cell-based. How it is done: PC12 cells (RIKEN Cell Bank, Tsukuba, Japan) were cultured at 37° C., 5% CO2 in Dulbecco's modified Eagle's medium (DMEM), supplemented with 5% heat-inactivated fetal bovine serum (FBS), 10% heat-inactivated horse serum, and 1% penicillin-streptomycin. Medium was changed two to three times a week. PC12 cells were plated onto 24-well tissue culture plates coated with poly-D-lysine/laminin. Cells were plated at relatively low density (0.25×10^4 cells/cm^2) in DMEM medium containing 0.5% FBS, 1% penicillin-streptomycin. Medium containing a minimal level of serum (0.5% FBS) was used as previously reported (58-60). […]. Four days after incubation with NGF (2.5 ng/ml) with or without specified compounds, morphometric analysis was performed on digitized images of live cells taken under phase-contrast illumination, with an inverted microscope linked to a camera. Images of three fields per well were taken, with an average of 100 cells per field. Differentiated cells were counted by visual examination of the field; only cells that had at least one neurite with a length equal to the cell body diameter were counted, and were then expressed as a percentage of the total cells in the field. Counting was performed in a blinded manner.

The target in series [1] is T1, sEH (Homo sapiens (Human), UniProt P34913). The series is described as follows: inhibition of sEH (standard assays). Format: biochemical. The text has this:
Any of a number of standard assays for determining epoxide hydrolase activity can be used to determine inhibition of sEH. […] Suitable in vitro assays are described in Zeldin et al., J Biol. Chem. 268:6402-6407 (1993). Suitable in vivo assays are described in Zeldin et al., Arch Biochem Biophys 330:87-96 (1996).
The enzyme also can be detected based on the binding of specific ligands to the catalytic site which either immobilize the enzyme or label it with a probe such as dansyl, fluoracein, luciferase, green fluorescent protein or other reagent. The enzyme can be assayed by its hydration of EETs, its hydrolysis of an epoxide to give a colored product as described by Dietze et al., 1994, supra, or its hydrolysis of a radioactive surrogate substrate (Borhan et al., 1995, supra). The enzyme also can be detected based on the generation of fluorescent products following the hydrolysis of the epoxide. Numerous methods of epoxide hydrolase detection have been described (see, e.g., Wixtrom, supra).
The assays are normally carried out with a recombinant enzyme following affinity purification. They can be carried out in crude tissue homogenates, cell culture or even in vivo, as known in the art and described in the references cited above.

A short description of another series: experimental logP. Format: physicochemical. The following applies: read-out: Exp/ logP.
Series [2] concerns the target T1, sEH.
Series [3] concerns mice after social defeat stress. The conditions noted are these: single dose; literature (37,39); cited from earlier work.
The conditions of series [4]: 3 mg/kg PO; mice.
The next series deals with TNF-α. The series is described as follows: serum TNF-α after LPS administration. Format: in vivo. The conditions noted are these: TPPU 3.0 mg/kg PO. How it is done: Inflammation model of depression. The procedure of inflammation model of depression was performed as previously reported (36). Behavioral tests were performed 24 hours after a single administration of LPS (0.5 mg/kg). […] Serum sample was collected 90 min after LPS administration, and serum levels of TNF-α were measured using a Ready-SET-Go ELISA kit (eBioscience Inc., San Diego, Calif.), according to manufacturer's instructions. […] Behavioral tests including locomotion (LMT), tail suspension test (TST), and forced swimming test (FST) were performed 1, 3, and 5 hours after administration. […] Behavioral tests including LMT, TST, and FST were performed 24, 26, and 28 hours after administration of LPS.

The next series in a line: in vivo. The following applies: mouse, po, 3 mg/kg, 3 mg/kg PO, mice.
Series [5] deals with LPS-treated depressed mice. The conditions noted are these: literature (36); cited from earlier work.

Here are results for ten molecules from US11123311B2, “Methods of treating mental disorders” (The Regents of the University of California, priority 2016, dated 2021).

T1 sequence (P34913 whole entry): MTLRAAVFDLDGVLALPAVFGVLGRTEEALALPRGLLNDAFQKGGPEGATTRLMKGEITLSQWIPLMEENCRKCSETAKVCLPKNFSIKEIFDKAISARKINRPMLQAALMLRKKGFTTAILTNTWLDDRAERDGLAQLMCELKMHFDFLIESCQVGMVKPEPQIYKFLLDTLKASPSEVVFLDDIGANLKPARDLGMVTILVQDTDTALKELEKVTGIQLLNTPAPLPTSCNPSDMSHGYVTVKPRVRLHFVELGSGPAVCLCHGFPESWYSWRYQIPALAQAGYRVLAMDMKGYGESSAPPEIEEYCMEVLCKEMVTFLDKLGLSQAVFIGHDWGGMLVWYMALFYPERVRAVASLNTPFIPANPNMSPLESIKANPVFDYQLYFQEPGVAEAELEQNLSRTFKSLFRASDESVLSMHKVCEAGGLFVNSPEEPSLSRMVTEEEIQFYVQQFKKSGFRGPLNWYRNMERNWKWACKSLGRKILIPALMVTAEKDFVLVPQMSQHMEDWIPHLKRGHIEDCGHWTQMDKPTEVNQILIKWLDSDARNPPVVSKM

Turning to `CCCCCC1OC1C/C=C\C/C=C\C/C=C\CCCC(=O)O` (stereo not drawn) [14,15-EET], the “production of BDNF” value with astrocyte is listed as “promote the production of BDNF”. Besides, the axonal growth result in the series on neuronal cell cultures is reported as “enhance axonal growth”. Besides, the NGF-induced neurite outgrowth result in the series with PC12 cells is recorded as “potentiated”.
In the case of `CCCCCCCCCCCCNC(=O)NC12CC3CC(CC(C3)C1)C2` [ADU, N-Adamantyl-N′-dodecyl urea], the “activity as an inhibitor of sEH” value at sEH [1] was “particularly high activity”.
With `O=C(Nc1ccc(OC(F)(F)F)cc1)NC1CCN(C(=O)C2(C(F)(F)F)CC2)CC1` [Compound 28], in “experimental logP”, the logP came out at 4.63.
As to `CC[C@H](C)C(=O)N1CCC(NC(=O)Nc2ccc(C(F)(F)F)nc2)CC1` [Compound 42], the logP in “experimental logP” worked out at 3.22. The “t1/2 (human sEH)” value on sEH [2] was found to be 0.0617 h.
As for `CC(C)C(=O)N1CCC(NC(=O)Nc2ccc(OC(F)(F)F)cc2)CC1` [Compound 2389], the logP in “experimental logP” worked out at 3.37. Further, at sEH [2], the “t1/2 (human sEH)” value was found to be 0.3 h.
With `CN[C@@]1(c2ccccc2Cl)CCCCC1=O` [R-ketamine], the “antidepressant effect in the social defeat stress model” value in series [3] was “rapid antidepressant effect”.
With `CCC(=O)N1CCC(NC(=O)Nc2ccc(OC(F)(F)F)cc2)CC1` [TPPU], in [4], the “half-life in the blood (plasma)” value came to 17.8 h and the “half-life in the cerebral cortex” value was 10.7 h. The “serum levels of TNF-α in control mice” value with TNF-α is on record as “no effect”. The molecule further gave a half-life in the series “in vivo” (half-life in the blood (plasma)) of 17.8 h. This molecule also gave a half-life in the series “in vivo” (half-life in the cerebral cortex) of 10.7 h.
With `CNC1(c2ccccc2Cl)CCCCC1=O` (stereo not drawn) [ketamine], the “antidepressant effect in the social defeat stress model” value in series [3] was “rapid antidepressant effect”.
For `Fc1ccc([C@@H]2CCNC[C@H]2COc2ccc3c(c2)OCO3)cc1` [paroxetine], the “effect in the LPS-induced inflammation model of depression” value in [5] was “do not have any effect”.
As to `COc1ccc(C(CN(C)C)C2(O)CCCCC2)cc1` (stereo not drawn) [venlafaxine], in series [5], the “effect in the LPS-induced inflammation model of depression” value is reported as “do not have any effect”.
